Data as given in US20120010272A1, “RNA Interference Mediated Inhibition of Apoptosis Signal-Regulating Kinase 1 (ASK1) Gene Expression Using Short Interfering Nucleic Acid (siNA)” (Merck Sharp & Dohme Corp., priority 2009, published 2012).
[invAb] = inverted abasic unit; m = 2'-O-methyl; r = 2'-OH (RNA); f = 2'-fluoro

How the values were obtained:
Format in all cases: cell-based
[1] = system: ASK1 mRNA; assay: ASK1 mRNA knock-down by siNA in human A549 cells (RNAiMax transfection, Taqman RT-PCR); settings: for % KD Human: 10 nM siNA, 24 hrs post-transfection, vs non-targeting control, GAPDH-normalized, mean ± S.D.; for % KD Human / % KD ASK-1 10 nM: two experiments; for % KD ASK-1 mRNA at 10 nM: mean ± S.D. (Table 5); for % KD ASK-1 10 nM: mean ± standard deviation (Table 6)
Procedure: A549 (human; ATCC cat #CCL-185): Cells were cultured at 37° C. in the presence of 5% CO2 and grown in Ham's F12K medium with 2 mM L-glutamine adjusted to contain 1.5 g/L sodium bicarbonate and supplemented with fetal bovine serum at a final concentration of 10%, 100 μg/mL of streptomycin, and 100 U/mL penicillin.
(§1) Cells were plated in all wells of a tissue-culture treated, 96-well plate at a final count of 5000 cells/well (A549 cell line) and 3,500 cells/well (Hepal-6 cell line) in 100 μL of the appropriate culture media. The cells were cultured for 24 hours after plating at 37° C. in the presence of 5% CO2.
(§2) After 24 hours, complexes containing siNA and RNAiMax were created as follows: A solution of RNAiMax diluted 33-fold in OPTI-MEM was prepared. In parallel, solutions of the siNAs for testing were prepared to a final concentration of 120 nM in OPTI-MEM. After incubation of RNAiMax/OPTI-MEM solution at room temperature for 5 min, an equal volume of the siRNA solution and the RNAiMax solution were added together for each of the siNAs.
(§3) This solution was incubated at room temperature for 20 minutes. After incubation, 20 uL of the solution was added to each of the relevant wells. The final concentration of siNA in each well was 10 nM and the final volume of RNAiMax in each well was 0.3 ul.
(§4) The time of incubation with the RNAiMax-siNA complexes was 24 hours and there was no change in media between transfection and harvesting, unless otherwise indicated.
(§5) RNA was extracted from a 96-well plate using the TaqMan® Gene Expression Cells-to-CT™ Kit (Cat #4399002) with a modified protocol. Briefly, a 60 uL (1 plate) or 110 uL (2 plates) of the Lysis Solution with DNase I was dispensed into each well of the Lysis Buffer Plate (twin.tec full skirt plate). The lysis buffer and stop plates were stored at 4° C. until the cells were washed.
(§6) The plate was spun at 1100 rpm for 5 minutes. The culture medium was aspirated and discarded from the wells of the culture plate. The lysis was performed automatically using a BioMek FX instrument and method. After the Biomek method was completed, the lysis plate was incubated for 2 min. at room temperature. The lysis plate can be stored for 2 hours at 4° C., or at −20° C. or −80° C. for two months.
(§7) Each well of the reverse transcription plate required 10 uL of 2× reverse transcriptase Buffer, 1 uL of 20× reverse transcription enzyme and 2 uL of nuclease-free water. The reverse transcription master mix was prepared by mixing 2× reverse transcription buffer, 20× reverse transcription enzyme mix, and nuclease-free water. 13 uL of the reverse transcription master mix was dispensed into each well of the reverse transcription plate (semi-skirted). A separate reverse transcription plate was prepared for each cell plate. The plate was loaded onto a Biomek NX or Biomek FX Dual-96 and the Biomek method was run. The program is programmed to automatically added 7 uL of lysate from the cell lysis procedure described above into each well of the reverse transcription plate. The plate is sealed and spun on a centrifuge (1000 rpm for 30 seconds) to settle the contents to the bottom of the reverse transcription plate. The plate is placed in a thermocycler at 37° C. for 60 min, 95° C. for 5 min, and 4° C. until the plate is removed from the thermocycler. Upon removal, if not used immediately, the plate was frozen at −20° C.
(§8) A series of probes and primers were used to detect the various mRNA transcripts of the genes of ASK1, ASK2, and GAPDH in human cell lines and ASK1 and GAPDH in mouse cell lines. All Taqman probes and primers for the experiments were supplied as pre-validated sets by ABI (see Table 2).
(§9) The assays were performed on an ABI 7900 instrument, according to the manufacturer's instructions. A TaqMan Gene Expression Master Mix (provided in the Cells-to-CT™, Applied Biosystems, Cat #4399002) was used. […]

[2] = system: ASK1 mRNA; assay: ASK1 mRNA knock-down by siNA in mouse Hepa1-6 cells (RNAiMax transfection, Taqman RT-PCR); settings: 10 nM siNA, 24 hrs post-transfection, vs non-targeting control, GAPDH-normalized, mean ± S.D., two experiments
Procedure: Hepal-6 (murine; ATCC cat #CRL-1830): Cells were cultured at 37° C. in the presence of 5% CO2 and grown in Dulbecco's modified Eagle's medium (DMEM) with 4 mM L-glutamine adjusted to contain 1.5 g/L sodium bicarbonate and 4.5 g/L glucose and supplemented with 10% of fetal bovine serum, 100 μg/mL of streptomycin, and 100 U/mL penicillin.
as §1, §2, §3, §4, §5, §6, §7, §8, §9

[3] = system: mRNA transcript of human ASK2; assay: ASK2 specificity screen: effect of ASK1 siNAs on human ASK2 mRNA in A549 cells; settings: 1 nM siNA, three independent experiments, mean ± standard deviation
Procedure: A549 cells were plated in all wells of a tissue-culture treated, 96-well plate at a final count of 5,000 cells/well in 100 μL of appropriate culture media. Cells were cultured for 24 hours after plating at 37° C. in the presence of 5% CO2.
as §2, with “follows.” for “follows:”, “siRNAs” for “siNAs”, “12” for “120”, “siNA” for “siRNA”, “siNAs. […] This solution was incubated at room temperature for 20 minutes. After incubation, 20 uL of the solution was added to each of the relevant wells. The final concentration of siNA in each well was 1 nM and the final volume of RNAiMax in each well was 0.3 uL. The time of incubation with the RNAiMax-siNA complexes was 24 hours.” for “siNAs.”
as §5, §6, §7, §8
The assays were performed on an ABI 7900 instrument, according to the manufacturer's instructions. A TaqMan Gene Expression Master Mix (provided in the Cells-to-CT™, Applied Biosystems, Cat #4399002) was used. The PCR reactions were carried out at 50° C. for 2 min, 95° C. for 10 min followed by 40 cycles at 95° C. for 15 secs and 60° C. for 1 min.
The expression level of the gene of interest and % knock-down was calculated using Comparative Ct method:
ΔΔCt=ΔCt(Target siRNA)−ΔCt(NTC)
Relative expression level=2^−ΔΔCt
The non-targeting control siRNA was, unless otherwise indicated, chosen as the value against which to calculate the % knock-down, because it is the most relevant control.
The specificity of these siNAs was also assessed. […]

[4] = system: ASK1 mRNA; assay: ASK1 mRNA knock-down by siNA in human A549 cells (RNAiMax transfection, Taqman RT-PCR); settings: 12 concentrations 0.083 fM to 30 nM, mean ± S.D.

Substance	% KD Human [1] [%]	% KD ASK-1 mRNA at 10 nM [1] [%]	% KD ASK-1 10 nM [1] [%]	% KD Mouse [2] [%]	% KD ASK-2 1 nM [3] [%]	IC50 [4] [pM]
25399-DC: siNA duplex, sense B ccAAcAcuAcAGucAGGAA TTB, antisense UUCcuGAcuGuAGuGuuGGUU (SEQ ID NO: 79/80), human ASK1 target site 1640 (sense CCAACACUACAGUCAGGAATT; antisense UUCCUGACUGUAGUGUUGGUU; sense: DNA at AGT, 2'-fluoro at CU, [invAb] at 5' end, 3' end, backbone not given here; antisense: sugars from the 5' end rrrffmmffmfmmfmffmmmm, backbone not given here)	81 ± 2	81 ± 2	81 ± 2	62 ± 0	9 ± 8	150 ± 43
25385-DC: siNA duplex, sense B GGAAGGcuAucAuuGAcuu TTB, antisense AAGucAAuGAuAGccuuccUU (SEQ ID NO: 51/52), human ASK1 target site 4449 (sense GGAAGGCUAUCAUUGACUUTT; antisense AAGUCAAUGAUAGCCUUCCUU; chemistry not fully specified)	90 ± 0	90 ± 0	90 ± 0	75 ± 15	2 ± 11	10 ± 3
25387-DC: siNA duplex, sense B cAccAGAAAuAAuAGAuAA TTB, antisense UUAucuAuuAuuucuGGuGUU (SEQ ID NO: 55/56), human ASK1 target site 2901 (sense CACCAGAAAUAAUAGAUAATT; antisense UUAUCUAUUAUUUCUGGUGUU; chemistry not fully specified)	87 ± 2	87 ± 2	87 ± 2	−17 ± 11	4 ± 11	20 ± 3
25389-DC: siNA duplex, sense B GAGAcAAuuuuAAuAuAuA TTB, antisense UAUAuAuuAAAAuuGucucUU (SEQ ID NO: 59/60), human ASK1 target site 1907 (sense GAGACAAUUUUAAUAUAUATT; antisense UAUAUAUUAAAAUUGUCUCUU; chemistry not fully specified)	93 ± 4	93 ± 4	93 ± 4	−4 ± 4	5 ± 4	3 ± 0.5
25379-DC: siNA duplex, sense B cGAuGGAAAuucuAAAAAu TTB, antisense AUUuuuAGAAuuuccAucGUU (SEQ ID NO: 39/40), human ASK1 target site 4507 (sense CGAUGGAAAUUCUAAAAAUTT; antisense AUUUUUAGAAUUUCCAUCGUU; chemistry not fully specified)	92 ± 0	92 ± 0	92 ± 0	4 ± 3	−6 ± 4	9 ± 2
25380-DC: siNA duplex, sense B GAuGGAAAuucuAAAAAuu TTB, antisense AAUuuuuAGAAuuuccAuCUU (SEQ ID NO: 41/42), human ASK1 target site 4508 (sense GAUGGAAAUUCUAAAAAUUTT; antisense AAUUUUUAGAAUUUCCAUCUU; chemistry not fully specified)	91 ± 0	–	–	−7 ± 11	–	–
25381-DC: siNA duplex, sense B GcGAGGcccuGcAGAGcuu TTB, antisense AAGcucuGcAGGGccucGcUU (SEQ ID NO: 43/44), human ASK1 target site 690 (sense GCGAGGCCCUGCAGAGCUUTT; antisense AAGCUCUGCAGGGCCUCGCUU; chemistry not fully specified)	70 ± 2	–	–	45 ± 2	–	–
25392-DC: siNA duplex, sense B cAcuGAccGAAAAAucAuA TTB, antisense UAUGAuuuuucGGucAGuGUU (SEQ ID NO: 65/66), human ASK1 target site 3661 (sense CACUGACCGAAAAAUCAUATT; antisense UAUGAUUUUUCGGUCAGUGUU; chemistry not fully specified)	67 ± 6	–	–	63 ± 1	–	–
25377-DC: siNA duplex, sense B GGAAGAccAAGAcAAAAuu TTB, antisense AAUuuuGucuuGGucuuccUU (SEQ ID NO: 35/36), human ASK1 target site 3538 (sense GGAAGACCAAGACAAAAUUTT; antisense AAUUUUGUCUUGGUCUUCCUU; chemistry not fully specified)	80 ± 3	–	–	10 ± 2	–	–
25391-DC: siNA duplex, sense B cAGAGGccAAGGcAuucAu TTB, antisense AUGAAuGccuuGGccucuGUU (SEQ ID NO: 63/64), human ASK1 target site 3087 (sense CAGAGGCCAAGGCAUUCAUTT; antisense AUGAAUGCCUUGGCCUCUGUU; chemistry not fully specified)	11 ± 38	–	–	−3 ± 4	–	–
25394-DC: siNA duplex, sense B uucGGAAucAuAAcAucAA TTB, antisense UUGAuGuuAuGAuuccGAAUU (SEQ ID NO: 69/70), human ASK1 target site 3786 (sense UUCGGAAUCAUAACAUCAATT; antisense UUGAUGUUAUGAUUCCGAAUU; chemistry not fully specified)	76 ± 8	–	–	60 ± 6	–	–
